Series [1] has as its target T1, Poly [ADP-ribose] polymerase 1 (Homo sapiens, UniProt P09874).
Description: Inhibition of PARP1 (unknown origin)
Series [2] is described as follows: Tmax in BALB/c mouse at 25 mg/kg, po measured upto 24 hrs by LC-MS/MS analysis. It counts as ADME, organism-based. Particulars: in vivo.
Series [3] concerns the target T1, Poly [ADP-ribose] polymerase 1. Kind of series: Inhibition of human recombinant PARP1 expressed in Escherichia coli BL21(DE3) incubated for 1 hr by ELISA assay. For orientation: ELISA stands for enzyme-linked immunosorbent assay.
In series [4] the target is T2, Poly [ADP-ribose] polymerase 2 (Homo sapiens, UniProt Q9UGN5). Briefly: Inhibition of human recombinant PARP2 expressed in Escherichia coli BL21(DE3) incubated for 1 hr by ELISA assay.
Series [5] in a line: Aqueous solubility of the compound. Format: physicochemical.
The target in series [6] is T1, Poly [ADP-ribose] polymerase 1. Kind of series: Inhibition of human recombinant N-terminal GST-tagged PARP1 (2 to 1014(end) residues) expressed in Sf9 cells.
In series [7] the target is Protein mono-ADP-ribosyltransferase PARP3 (Homo sapiens, UniProt Q9Y6F1). Kind of series: Inhibition of human recombinant N-terminal GST-tagged PARP3 (2 to 540(end) residues) expressed in Sf9 cells.
Series [8] has as its target Protein mono-ADP-ribosyltransferase PARP6 (Homo sapiens, UniProt Q2NL67). Kind of series: Inhibition of human recombinant N-terminal GST-tagged PARP6 (1 to 630(end) residues) expressed in Sf9 cells.
In series [9] the target is Protein mono-ADP-ribosyltransferase TIPARP (Homo sapiens, UniProt Q7Z3E1). Briefly: Inhibition of human recombinant N-terminal FLAG-tagged PARP7 (400 to 657(end) residues) expressed in Sf9 cells.
Series [10] concerns the target Protein mono-ADP-ribosyltransferase PARP8 (Homo sapiens, UniProt Q8N3A8). Briefly: Inhibition of PARP8 (unknown origin).
Series [11] is described as follows: Binding affinity to cat PARP1 assessed as dissociation constant by SPR assay. Also noted: species or system Felis catus. A general note: In SPR one partner is held on a chip, and binding of the other changes the refractive index at the surface.
The nature of series [12]: Binding affinity to cat PARP2 assessed as dissociation constant by SPR assay. Also noted: species or system Felis catus.
In series [13] the test system is MDA-MB-436. Kind of series: Antitumor activity against BRCAl-deficient human MDA-MB-436 cells xenografted in Balb/c athymic nude mouse assessed as tumor growth inhibition at 1.1 mg/kg, po qd measured after 23 days. Particulars: MDA-MB-436, 552 h, time 23 day, read-out: TGI. Format: functional.
The test system of series [14] is MDA-MB-436. Kind of series: Antitumor activity against BRCAl-deficient human MDA-MB-436 cells xenografted in Balb/c athymic nude mouse assessed as tumor growth inhibition at 3.3 mg/kg, po qd measured after 23 days. It counts as functional. Particulars: MDA-MB-436, 552 h, time 23 day, read-out: TGI. (Xenograft models place foreign cells or tissue in a host animal.)

The subject of series [15] is MDA-MB-436. Briefly: Antitumor activity against BRCAl-deficient human MDA-MB-436 cells xenografted in Balb/c athymic nude mouse assessed as tumor growth inhibition at 10 mg/kg, po qd measured after 23 days. It counts as functional. Particulars: MDA-MB-436, 552 h, time 23 day, read-out: TGI.
Series [16] can be described thus: Toxicity in Balb/c athymic nude mouse xenografted with BRCAl-deficient human MDA-MB-436 cells assessed as change in body weight at 1.1 to 10 mg/kg, po qd measured after 23 days. It counts as organism-based. Conditions: in vivo, 552 h, dose 1.1-10 mg/kg, time 23 day.
Series [17] concerns DU-145. Kind of series: Antitumor activity against PTEN-deficient human DU-145 cells xenografted in Balb/c athymic nude mouse assessed as tumor growth inhibition at 5 mg/kg, po qd measured after 14 days. It counts as functional. Particulars: DU-145, 336 h, time 14 day, read-out: TGI.
In series [18] the test system is DU-145. Briefly: Antitumor activity against PTEN-deficient human DU-145 cells xenografted in Balb/c athymic nude mouse assessed as tumor growth inhibition at 10 mg/kg, po qd measured after 14 days. Format: functional. Conditions: DU-145, 336 h, time 14 day, read-out: TGI.
Series [19] concerns DU-145. Kind of series: Antitumor activity against PTEN-deficient human DU-145 cells xenografted in Balb/c athymic nude mouse assessed as tumor growth inhibition at 20 mg/kg, po qd measured after 14 days. Format: functional. Particulars: DU-145, 336 h, time 14 day, read-out: TGI.
Series [20] can be described thus: Toxicity in Balb/c athymic nude mouse xenografted with PTEN-deficient human DU145 cells assessed as change in body weight at 5 to 20 mg/kg, po qd measured after 14 days. It counts as organism-based, DU-145. Conditions: in vivo, 336 h, dose 5-20 mg/kg, time 14 day.
The subject of a further series is MC-38. Kind of series: Antitumor activity against mouse MC38 cells implanted in C57BL/6 mouse assessed as tumor growth inhibition at 10 mg/kg, po qd measured after 17 days. Format: functional. Conditions: MC-38, 408 h, time 17 day, read-out: TGI.
A short description of series [21]: Toxicity in C57BL/6 mouse implanted with mouse MC38 cells assessed as change in body weight at 10 mg/kg, po qd measured after 17 days. It counts as organism-based, MC-38. Conditions: in vivo, 408 h, time 17 day.
Series [22] in a line: Half life in BALB/c mouse at 25 mg/kg, po measured upto 24 hrs by LC-MS/MS analysis. It counts as ADME, organism-based. Conditions: in vivo.
A short description of series [23]: Half life in BALB/c mouse at 2.5 mg/kg, iv measured upto 24 hrs by LC-MS/MS analysis. It counts as ADME, organism-based. Conditions: in vivo.
A short description of series [24]: Tmax in BALB/c mouse at 2.5 mg/kg, iv measured upto 24 hrs by LC-MS/MS analysis. It counts as ADME, organism-based. Particulars: in vivo.
Series [25] can be described thus: Cmax in BALB/c mouse at 25 mg/kg, po measured upto 24 hrs by LC-MS/MS analysis. It counts as ADME, organism-based. On the set-up: time < 24 hrs, dose 25 mg/kg, route po. Conditions: in vivo.
The nature of series [26]: Cmax in BALB/c mouse at 2.5 mg/kg, iv measured upto 24 hrs by LC-MS/MS analysis. It counts as ADME, organism-based. On the set-up: time < 24 hrs, dose 2.5 mg/kg, route iv. Conditions: in vivo.
Series [27] can be described thus: AUC (0 to t) in BALB/c mouse at 25 mg/kg, po measured upto 24 hrs by LC-MS/MS analysis. It counts as ADME, organism-based. On the set-up: time < 24 hrs, dose 25 mg/kg, route po. Conditions: in vivo.
A short description of series [28]: AUC (0 to t) in BALB/c mouse at 2.5 mg/kg, iv measured upto 24 hrs by LC-MS/MS analysis. Particulars: in vivo. Also noted: time < 24 hrs, dose 2.5 mg/kg, route iv. Format: ADME, organism-based.
Series [29] can be described thus: AUC (0 to infinity) in BALB/c mouse at 25 mg/kg, po measured upto 24 hrs by LC-MS/MS analysis. Format: ADME, organism-based. On the set-up: dose 25 mg/kg, time < 24 hrs, route po. Conditions: in vivo.
The nature of series [30]: AUC (0 to infinity) in BALB/c mouse at 2.5 mg/kg, iv measured upto 24 hrs by LC-MS/MS analysis. Format: ADME, organism-based. On the set-up: dose 2.5 mg/kg, time < 24 hrs, route iv. Particulars: in vivo.
Series [31] can be described thus: MRT (0 to t) in BALB/c mouse at 25 mg/kg, po measured upto 24 hrs by LC-MS/MS analysis. Format: ADME, organism-based. Conditions: in vivo.
Series [32] can be described thus: MRT (0 to t) in BALB/c mouse at 2.5 mg/kg, iv measured upto 24 hrs by LC-MS/MS analysis. Conditions: in vivo. It counts as ADME, organism-based.
Series [33] is described as follows: MRT (0 to infinity) in BALB/c mouse at 25 mg/kg, po measured upto 24 hrs by LC-MS/MS analysis. Format: ADME, organism-based. Conditions: in vivo.
Series [34] is described as follows: MRT (0 to infinity) in BALB/c mouse at 2.5 mg/kg, iv measured upto 24 hrs by LC-MS/MS analysis. It counts as ADME, organism-based. Conditions: in vivo.
Series [35] in a line: Oral bioavailability in BALB/c mouse at 25 mg/kg measured upto 24 hrs by LC-MS/MS analysis. Format: ADME, organism-based. Particulars: in vivo.
Series [36] addresses T2, Poly [ADP-ribose] polymerase 2.
Description: Inhibition of human recombinant N-terminal GST-tagged PARP2 (2 to 583(end) residues) expressed in Sf9 cells

Molecules are shown by their SMILES.

A word on the IC50: it is the concentration that gives 50% inhibition. As usually defined, the Tmax is the time at which the peak concentration occurs. For orientation: solubility means the dissolved amount per volume that the medium holds. Higher therefore signals much dissolved substance. The Kd is a measure of binding affinity in units of concentration. By half-life is commonly meant the time in which the quantity being followed falls by half. The low end stands for rapid decline, the high end for slow decline. One may read the Cmax as the highest concentration seen after dosing. By AUC(0-t) is commonly meant the area under the concentration-time curve up to a stated or last time point. Low readings indicate low exposure, high ones high exposure. By AUC(0-inf) is commonly meant total exposure, with the tail of the curve extrapolated. For orientation: MRT last means the average time that molecules of a dose stay in the body. By MRT inf is commonly meant a mean duration of stay, worked out from the concentration-time curve. In general, bioavailability refers to the share of a dose that reaches the circulation, judged against a reference dose that is usually intravenous.

T1 sequence (P09874 whole entry): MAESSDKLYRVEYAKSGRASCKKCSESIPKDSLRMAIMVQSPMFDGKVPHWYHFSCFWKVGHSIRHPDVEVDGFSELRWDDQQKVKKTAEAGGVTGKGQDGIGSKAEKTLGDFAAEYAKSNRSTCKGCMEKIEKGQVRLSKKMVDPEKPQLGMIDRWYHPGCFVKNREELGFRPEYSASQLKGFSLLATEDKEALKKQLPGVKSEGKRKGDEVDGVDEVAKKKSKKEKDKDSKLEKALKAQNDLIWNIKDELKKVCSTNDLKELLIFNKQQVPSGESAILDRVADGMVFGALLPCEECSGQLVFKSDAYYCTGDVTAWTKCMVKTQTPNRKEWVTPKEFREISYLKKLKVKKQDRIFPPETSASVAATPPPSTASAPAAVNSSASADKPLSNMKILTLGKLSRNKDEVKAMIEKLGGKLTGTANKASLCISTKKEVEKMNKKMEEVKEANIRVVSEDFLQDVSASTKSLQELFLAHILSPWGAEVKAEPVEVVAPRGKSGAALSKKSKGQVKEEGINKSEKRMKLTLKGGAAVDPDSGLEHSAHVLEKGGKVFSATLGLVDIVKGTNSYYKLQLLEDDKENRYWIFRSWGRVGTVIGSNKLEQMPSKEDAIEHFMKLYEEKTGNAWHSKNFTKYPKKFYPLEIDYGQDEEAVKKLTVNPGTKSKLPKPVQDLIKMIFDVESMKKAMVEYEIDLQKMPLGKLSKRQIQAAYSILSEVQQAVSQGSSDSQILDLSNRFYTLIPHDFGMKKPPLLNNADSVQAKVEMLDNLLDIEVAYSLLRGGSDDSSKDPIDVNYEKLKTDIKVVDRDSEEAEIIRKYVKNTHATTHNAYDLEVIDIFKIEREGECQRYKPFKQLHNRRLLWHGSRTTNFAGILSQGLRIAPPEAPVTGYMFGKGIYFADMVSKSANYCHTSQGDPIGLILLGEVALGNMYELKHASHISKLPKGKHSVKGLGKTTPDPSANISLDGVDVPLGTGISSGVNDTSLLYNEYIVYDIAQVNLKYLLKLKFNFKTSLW
T2 sequence (Q9UGN5 whole entry): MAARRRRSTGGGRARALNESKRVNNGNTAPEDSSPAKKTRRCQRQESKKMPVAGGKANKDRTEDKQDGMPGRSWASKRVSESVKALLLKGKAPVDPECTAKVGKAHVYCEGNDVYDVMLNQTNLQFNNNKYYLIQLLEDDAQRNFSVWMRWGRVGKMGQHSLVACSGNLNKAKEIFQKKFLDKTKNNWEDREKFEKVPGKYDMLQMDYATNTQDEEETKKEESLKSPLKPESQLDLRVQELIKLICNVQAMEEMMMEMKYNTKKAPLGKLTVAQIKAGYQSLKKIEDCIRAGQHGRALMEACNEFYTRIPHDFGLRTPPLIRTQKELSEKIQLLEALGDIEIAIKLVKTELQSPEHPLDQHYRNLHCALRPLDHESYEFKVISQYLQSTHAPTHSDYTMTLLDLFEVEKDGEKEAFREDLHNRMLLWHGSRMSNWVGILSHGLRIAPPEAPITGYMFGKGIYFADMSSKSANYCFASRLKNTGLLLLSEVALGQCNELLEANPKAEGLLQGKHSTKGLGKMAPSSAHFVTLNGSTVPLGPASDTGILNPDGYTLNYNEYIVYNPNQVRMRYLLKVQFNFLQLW
Sequence of Protein mono-ADP-ribosyltransferase PARP6 (Q2NL67 whole entry): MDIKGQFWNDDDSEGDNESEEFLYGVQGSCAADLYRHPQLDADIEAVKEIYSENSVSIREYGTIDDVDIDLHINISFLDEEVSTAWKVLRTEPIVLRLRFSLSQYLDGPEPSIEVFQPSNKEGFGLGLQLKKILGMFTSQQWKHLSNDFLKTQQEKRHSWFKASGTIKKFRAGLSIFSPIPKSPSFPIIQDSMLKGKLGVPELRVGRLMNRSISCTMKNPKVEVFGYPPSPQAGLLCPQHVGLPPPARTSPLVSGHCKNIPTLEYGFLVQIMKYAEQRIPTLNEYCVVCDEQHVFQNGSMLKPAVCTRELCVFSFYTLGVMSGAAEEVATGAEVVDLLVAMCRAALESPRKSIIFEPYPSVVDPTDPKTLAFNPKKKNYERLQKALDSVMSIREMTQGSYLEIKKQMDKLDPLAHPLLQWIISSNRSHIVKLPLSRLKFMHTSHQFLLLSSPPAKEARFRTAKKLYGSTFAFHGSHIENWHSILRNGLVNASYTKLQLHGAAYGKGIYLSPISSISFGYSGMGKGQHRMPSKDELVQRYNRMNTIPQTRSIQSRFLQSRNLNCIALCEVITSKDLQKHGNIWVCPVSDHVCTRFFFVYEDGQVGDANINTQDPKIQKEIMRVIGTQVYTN
Sequence of Protein mono-ADP-ribosyltransferase PARP3 (Q9Y6F1 whole entry): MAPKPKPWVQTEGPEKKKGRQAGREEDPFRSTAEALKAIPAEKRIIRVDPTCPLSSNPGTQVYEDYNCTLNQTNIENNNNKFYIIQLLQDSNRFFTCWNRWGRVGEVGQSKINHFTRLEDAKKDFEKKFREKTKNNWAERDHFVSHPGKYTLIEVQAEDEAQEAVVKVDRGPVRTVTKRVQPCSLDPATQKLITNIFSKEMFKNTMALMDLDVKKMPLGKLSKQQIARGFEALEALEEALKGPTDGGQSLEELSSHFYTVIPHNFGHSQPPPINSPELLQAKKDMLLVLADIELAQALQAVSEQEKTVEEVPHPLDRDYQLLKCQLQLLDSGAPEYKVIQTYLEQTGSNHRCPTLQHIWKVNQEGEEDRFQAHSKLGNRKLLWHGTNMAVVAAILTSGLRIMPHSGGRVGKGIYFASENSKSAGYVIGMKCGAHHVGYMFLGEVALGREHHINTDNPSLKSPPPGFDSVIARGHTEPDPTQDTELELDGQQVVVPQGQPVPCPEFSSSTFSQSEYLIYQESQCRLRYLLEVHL
Sequence of Protein mono-ADP-ribosyltransferase TIPARP (Q7Z3E1 whole entry): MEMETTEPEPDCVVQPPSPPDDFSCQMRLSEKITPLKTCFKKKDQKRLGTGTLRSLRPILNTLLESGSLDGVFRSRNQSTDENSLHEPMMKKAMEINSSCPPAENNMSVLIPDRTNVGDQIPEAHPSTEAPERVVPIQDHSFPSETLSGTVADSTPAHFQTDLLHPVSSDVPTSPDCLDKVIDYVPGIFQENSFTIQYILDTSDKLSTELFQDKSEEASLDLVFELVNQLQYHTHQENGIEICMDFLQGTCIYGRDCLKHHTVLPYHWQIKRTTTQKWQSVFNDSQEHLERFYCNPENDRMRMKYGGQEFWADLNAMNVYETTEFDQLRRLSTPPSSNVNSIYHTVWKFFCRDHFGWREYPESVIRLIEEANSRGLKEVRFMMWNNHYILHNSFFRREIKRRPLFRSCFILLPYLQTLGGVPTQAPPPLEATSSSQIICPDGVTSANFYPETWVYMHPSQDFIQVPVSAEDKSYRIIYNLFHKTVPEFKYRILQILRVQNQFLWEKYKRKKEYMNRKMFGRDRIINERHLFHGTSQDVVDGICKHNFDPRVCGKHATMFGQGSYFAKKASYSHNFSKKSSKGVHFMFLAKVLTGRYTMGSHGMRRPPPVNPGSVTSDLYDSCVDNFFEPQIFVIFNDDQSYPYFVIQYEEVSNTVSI
Sequence of Protein mono-ADP-ribosyltransferase PARP8 (Q8N3A8 whole entry): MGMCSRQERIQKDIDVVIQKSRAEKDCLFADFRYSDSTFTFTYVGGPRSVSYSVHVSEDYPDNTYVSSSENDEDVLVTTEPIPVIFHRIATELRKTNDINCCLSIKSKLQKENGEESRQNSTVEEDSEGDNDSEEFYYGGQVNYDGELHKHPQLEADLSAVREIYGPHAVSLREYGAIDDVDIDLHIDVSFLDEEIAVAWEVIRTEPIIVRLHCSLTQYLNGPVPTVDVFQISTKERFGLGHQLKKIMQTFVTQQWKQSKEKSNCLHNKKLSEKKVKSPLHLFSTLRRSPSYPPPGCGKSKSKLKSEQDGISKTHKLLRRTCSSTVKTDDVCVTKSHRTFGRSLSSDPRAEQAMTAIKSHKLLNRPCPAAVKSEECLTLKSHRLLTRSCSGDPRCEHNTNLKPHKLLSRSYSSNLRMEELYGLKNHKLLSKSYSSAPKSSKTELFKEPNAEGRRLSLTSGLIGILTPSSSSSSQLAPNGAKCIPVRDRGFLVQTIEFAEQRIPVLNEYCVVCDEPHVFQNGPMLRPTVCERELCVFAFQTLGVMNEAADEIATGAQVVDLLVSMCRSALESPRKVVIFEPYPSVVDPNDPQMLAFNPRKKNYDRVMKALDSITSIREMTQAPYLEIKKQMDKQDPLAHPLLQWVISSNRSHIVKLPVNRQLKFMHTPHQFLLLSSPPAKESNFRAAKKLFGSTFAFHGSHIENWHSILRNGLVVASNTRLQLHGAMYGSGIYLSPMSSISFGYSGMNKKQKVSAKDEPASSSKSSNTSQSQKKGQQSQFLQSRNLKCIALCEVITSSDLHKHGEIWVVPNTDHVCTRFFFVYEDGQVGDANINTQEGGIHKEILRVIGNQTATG

`O=C(c1cc(Cc2n[nH]c(=O)c3ccccc23)ccc1F)N1CCn2c(nnc2-c2ccc(Br)o2)C1`: the IC50 in series [1] was below 0.001 nM.

For `CCC(CC)N1CCN(C(=O)c2cc(Cn3c(=O)[n-]c(=O)c4ccccc43)ccc2F)CC1=O.[Na+]`, the results for the Tmax in series [2] and in [24] were 4.8 min and 1.8 min, respectively. The concentration for half-maximal inhibition (IC50) is 0.94 nM in series [3]; 0.87 nM in series [4]; 0.94 nM in series [6]; 51 nM in series [7]; around 280 nM in series [8]; 0.21 nM in [9]. In addition, the IC50 worked out at 13 nM in [10] and 0.87 nM in series [36]. This compound also showed a solubility in series [5] of 223 µg/mL. The Kd in [11] was found to be 0.83 nM; in [12], 0.75 nM. Besides, the inhibition in vivo at 1.1 mg/kg in the series with MDA-MB-436 [13] was 54.6%. For the same compound, in the series on MDA-MB-436 [14], the inhibition in vivo at 3.3 mg/kg is 84.9%. Moreover, the inhibition in vivo at 10 mg/kg with MDA-MB-436 [15] stood at 94.3%; in the series with DU-145 [18], 87%; in the series with MC-38 it was 57.3%. Moreover, the Activity result in [16], in [20] and in series [21] was “Non-Toxic” each time. The inhibition in vivo at 5 mg/kg with DU-145 [17] is 69.2%. Moreover, the inhibition in vivo at 20 mg/kg in the series on DU-145 [19] was 91.2%. The values for the half-life in series [22] and in [23] were 16.2 min and 7.8 min, respectively. Further, the Cmax was 1540 ng/mL in [25] and 2430 ng/mL in [26]. Besides, the AUC(0-t) at 24 h in series [27] amounted to 612 ng·h/mL; in [28], 417 ng·h/mL. Further, the AUC(0-inf) in [29] came to 617 ng·h/mL; in series [30], 419 ng·h/mL. For the same compound, the mean residence time MRT last at 24 h in [31] came out at 18.6 min; in [32], 7.8 min. Also, the results for the MRT inf in series [33] and in series [34] were 19.2 min and 7.8 min, respectively. In addition, the bioavailability in [35] amounted to 14.7%.

Values taken from ChEMBL document CHEMBL5370623, “Discovery of Quinazoline-2,4(1H,3H)-dione Derivatives Containing a Piperizinone Moiety as Potent PARP-1/2 Inhibitors─Design, Synthesis, In Vivo Antitumor Activity, and X-ray Crystal Structure Analysis” (J Med Chem, 2023).
